PMC9832345 (RSC Advances, 2023)

Test system: third instar larvae of Spodoptera litura
Assay: Leaf-dip larvicidal assay
Type: in vivo
Conditions: for Eating area (%): 96 h

| SMILES | Eating area (%) (6.25 ppm) | Eating area (%) (12.5 ppm) | eating area (concentration not given) |
| --- | --- | --- | --- |
| CNC(=O)c1cc(Cl)cc(C)c1NC(=O)c1cc(Br)nn1-c1ncccc1Cl [Chlorantraniliprole, chlorantraniliprole] | 0–5% | 0–5% | 0–5% |
| Cc1cc(Cl)cc(S(C)(=O)=O)c1NC(=O)c1cc(Br)nn1-c1ncccc1Cl [Compound 8] | 0–5% | 0–5% |  |
